Tests used:
Ly6C-positive monocytes = experiment: Measurement of monocyte infiltration by FACS in ALF mouse models; type: in vivo, mice; settings: for monocyte infiltration: APAP-induced ALF model, inhibitor i.p. 1 hour after 500 mg/kg APAP
Procedure: (§1) Mouse models—8 weeks old C57BL6 male mice were injected intraperitoneally with 500 mg/kg body mass acetaminophen (APAP) in PBS or 300 mg/kg of thioacetamide (TAA) in PBS, 20 hours prior to sample collection. To avoid known circadian effects, all injections were performed between 1 pm and 2 pm. Control mice were injected with vehicle (PBS). For antibiotic treatment, mice were given a cocktail of ampicillin (1 g/l), kanamycin (1 g/l), vancomycin (0.5 g/l) and metronidazole (1 g/l) in drinking water for two weeks. MyD88 and Trif double knockout mice were 8 weeks old, males on C57BL6 background^55. All experimental procedures involving mice were approved by the local IACUC.
Measurement of monocyte infiltration—Livers harvested from mice were finely chopped with sterile scissors and digested with 4 ml of pre-warmed 0.4 mg/ml protease and 0.1 U/ml collagenase D (EBS buffer: 8 g/l NaCl, 0.4 g/l KCl, 88 mg/l NaH2PO4.H2O, 120 mg/l Na2HPO4.H2O, 2.38 g/l HEPES, 0.35 g/l NaHCO3, 0.42 g/l CaCl2) for 30 minutes at 37° C. while shaking Following, 10 ml of cold PBS was added and the suspension was filtered through a 100 μm mesh. To deplete hepatocytes, samples were centrifuged at 30 g for 5 minutes and the supernatant was transferred to new tubes. Cells were collected by centrifugation at 580 g. To lyse red blood cells, 1 ml of Gibco™ ACK Lysing Buffer was added and cells were incubated at room temperature for one minute. Subsequently, cold PBS was added and cells were collected by centrifugation at 580 g.
Receptors on the cells were first blocked with TruStain FcX anti-mouse CD16/32, then the cells were washed with FACS buffer (PBS without calcium and magnesium, 1% FCS), collected by centrifugation at 580 g and stained with CD45-PECy7 (Biolegend, 30F11, cat. 103114), F4/80-FITC (Serotec, Cl:A3-1, cat. G00018) and Ly6C-APC (Biolegend, HK14, cat. 128016) antibodies for 1 hour on ice. Finally, the cells were washed with FACS buffer, collected by centrifugation at 580 g, resuspended in FACS buffer, filtered through 40 μm mesh and measured on DB LSRFortessa. Data was analysed using FlowJo software.
(§2) MYC inhibition—MYC inhibitor KJ-Pyr-9 or vehicle control was injected intraperitoneally 2 hours following injection of APAP or PBS vehicle control. Briefly, 10 mg of KJ-Pyr-9 (Tocris, cat 5306) was dissolved in 1 ml of DMSO and then combined with Tween 80 and 5% dextrose 1:1:8 by volume. Mice were injected with 0.5 ml per 20 g, so the final dose of KJ-Pyr-9 was 25 mg per kilogram of body mass.
Inhibition of MAPK pathway proteins—The inhibitors listed in Table 1 hereinbelow were injected intraperitoneally 1 hour following injection of 500 mg/kg APAP or corresponding PBS vehicle. Briefly. The inhibitors were dissolved in 5% DMSO in PBS to a final injection volume of 400 μl for 20 g mouse. […]

ALF mouse models [1] = experiment: Histology score of H&E stained liver sections in ALF mouse models; type: in vivo, mice; settings: for liver damage, histopathological analysis: APAP-induced ALF model, inhibitor i.p. 1 hour after 500 mg/kg APAP
Procedure: as §1
Histology—Sample from the left lobe of the liver was fixed in 4% paraformaldehyde, embedded in paraffin, sectioned and stained with hematoxylin and eosin (H&E). Slides were scored by a blinded veterinary pathologist for necrosis and hemorrhage on a scale from 0 (healthy) to 5 (most severe).
as §2
(§3) Inhibition of MAPK pathway proteins—The inhibitors listed in Table 1 hereinbelow were injected intraperitoneally 1 hour following injection of 500 mg/kg APAP or corresponding PBS vehicle. Briefly. The inhibitors were dissolved in 5% DMSO in PBS to a final injection volume of 400 μl for 20 g mouse. Control mice were injected with 5% DMSO in PBS vehicle.

ALF mouse models [2] = experiment: Liver enzymes activity measurement (serum ALT and AST) in ALF mouse models; type: in vivo, mice; settings: for ALT activity in serum / AST activity in serum: APAP-induced ALF model, inhibitor i.p. 1 hour after 500 mg/kg APAP
Procedure: as §1
MYC inhibition—MYC inhibitor KJ-Pyr-9 or vehicle control was injected intraperitoneally 2 hours following injection of APAP or PBS vehicle control. […] Mice were injected with 0.5 ml per 20 g, so the final dose of KJ-Pyr-9 was 25 mg per kilogram of body mass.
as §3

[3] = system: stellate, endothelial and Kupffer cells; experiment: Single cell RNA sequencing of liver cells; type: in vivo, mice; settings: for number of differentially expressed genes: pseudobulk counts
Procedure: as §1
Following, liver was dissected, placed in cold EBS solution, shaken vigorously with forceps for separation of single cells, followed by filtration through a 100 μm mesh. Hepatocytes were depleted by centrifugation at 30 g for 5 minutes. Cells were then collected by centrifugation at 580 g and resuspended in cold PBS. To enrich for stellate cells, cells with retinoid fluorescence in the Pacific Blue channel were sorted using a BD FACSAria III. Following, stellate cells were mixed with unsorted cells, spun down, resuspended in PBS with 0.04% BSA and counted using Neubauer chamber.
10× library preparation and sequencing—Single cells were captured and processed using the 10× Genomics Chromium 3′ Single Cell RNA seq protocol according to the manufacturers' manual. Subsequently, RNA was sequenced using NextSeq® 500/550 High Output Kit v2 (Illumina cat no. 20024906).
as §2
Mapping: Single cell RNA sequencing data were demultiplexed, mapped to the GRCm38 mouse genome and UMIs were counted using the Cell Ranger Single-Cell Software Suite 2.1.1. Filtering and doublet removal: Cells with less than 100 detected transcripts and more than 10% mitochondrial reads were removed. Clustering analysis was used to identify populations of thrombocytes, erythrocytes, neutrophils and mast cells. Following, a second filtering was effected using 600 detected transcripts. […] The second step was necessary, as there were many low quality cells with low threshold. Following, doublets were identified by finding clusters of cells expressing gene expression patterns of two cell types at the same time. Marker sets used were Dcn, Colec11, Ecm1, Cxcl12, Sod3, Angptl6, Rgs5, Reln, Tmem56, Rbp1, G0s2, Rarres2, Acta2, Tagln for stellate cells; Gpihbp1, Aqp1, Clec4g, Dnase113, Fabp4, Ptprb, Kdr, Gpr182 for endothelial cells; Alb, Ttr, Ambp, Rbp4, Cyp2e1, Spp1 for hepatocytes; Cd3e, Cd3g, Cd3d, Lat, Thy1, Cxcr6, Nkg7, Cd4, Cd8b1, Klra4, Ncr1, Gzmb, Lck, Txk, Ms4a4b, Ccl5 for T cells; Cd79b, Cd79a, Ms4a1, Siglecg, Fcmr, Cd19, Fcer2a for B cells; Adgre1, Cd51, Clec4f, Timd4, Folr2, C1qa, C1qb, C1qc, Vsig4, Xcr1, Cd209a, Itgax, Siglech, Chil3, F13a1, S100a4, Lgals3, Gda, S100a9, Retnlg for macrophages, DCs and neutrophils; Alas2, Hbb-bt, Hbb-bs, Hba-a2, Hba-a1 for erythrocytes. Clustering—All cells from all 22 samples were first clustered using R package Seurat v2.3.4 FindClusters function^56. Genes that were present in less than 3 cells were removed and then highly variable genes were identified as having mean of non-zero values between 0.0125 and 3 and standard deviation higher than 0.5. Dimensionality reduction was effected with PCA and first 50 PCs were used for clustering.
As the liver population is very complex, it was decided to perform stepwise clustering. First, expression of Ecm1, Ptprc, Ptprb, Epcam, Msln and Alb in the obtained clusters was determined. […]

ALF mouse models [4] = experiment: Survival of APAP-administered mice; type: in vivo; settings: n=15 per group
Procedure: as §1, §2

APAP-induced ALF = settings: intravenous; cited from earlier work
[5] = steady state, endothelial cells
[6] = both ALF models (APAP, TAA), KJ-Pyr-9 25 mg/kg i.p.

## CC[C@@H]1[C@H](F)C(=O)N[C@@H]1COc1nccc2cc(C(N)=O)c(OC)cc12 [IRAK4 inhibitor, PF 06650833]
Ly6C-positive monocytes
  monocyte infiltration: significant reduction
ALF mouse models [1]
  liver damage, histopathological analysis: significantly reduced liver damage
ALF mouse models [2]
  ALT activity in serum: significantly reduced
  AST activity in serum: significantly reduced

## NC(=O)c1ccc(-c2cc(-c3ccc([N+](=O)[O-])cc3)nc(-c3ccco3)c2)cc1 [MYCi, KJ-Pyr-9]
[3]; ALF
  expression of metallothionein 1 and 2 (Mt1 and Mt2): remained unaffected
  neutrophil infiltration: not affected
  total gene expression level: lower total gene expression level
[3]; ALF, Kupffer cells
  expression of neutrophil attractant chemokine Cxcl2: did not get downregulated
[3]; ALF, activated stellate, Kupffer and endothelial cell subsets
  expression of the 82 genes constituting the common activation signature: markedly attenuated
[3]; ALF, stellate cells
  drop of median number of detected transcripts: ~4 times
  upregulation of senescence and cell cycle arrest marker Cdkn1a (coding p21): attenuated
[3]; ALF, stellate cells, 3500 without MYC inhibition
  median number of detected transcripts: 945
[3]; during ALF induction
  activated populations (AAs, AAe, AAk): did not arise
[3]; during ALF, activated resident populations
  Map3k8 expression (coding for TPL2): strong induction
[3]; either APAP- or TAA-induced ALF
  infiltration of Ly6C-positive monocytes to the liver (single cell transcriptomic data): near-total reduction
[3]; in the absence of liver failure
  effect on the gene expression landscape: did not feature a notable effect
[3]; steady state, Kupffer cells
  differentially expressed genes: downregulation of genes related to antigen processing and presentation
  number of differentially expressed genes: 94 genes
[3]; [5]
  differentially expressed genes: downregulation of genes of the AP1 family
  number of differentially expressed genes: 5 genes
[3]; steady state, stellate cells
  gene ontology analysis of differentially expressed genes: downregulation of genes coding for ribosome proteins and other components of the translation machinery
  number of differentially expressed genes: 148 genes
ALF mouse models [4]
  mortality: attenuated
Ly6C-positive monocytes; ALF mice (FIGS. 4C APAP, 19A TAA), KJ-Pyr-9 25 mg/kg i.p. 2 hours after APAP
  infiltration of Ly6C-positive monocytes (F4/80 and Ly6C double-positive cells within the immune CD45-positive population): dramatic reduction
ALF mouse models [1]; during ALF (FIGS. 4F-G APAP, 19C-D TAA), KJ-Pyr-9 25 mg/kg i.p.
  hepatic damage, tissue histology by H&E staining: reduced hepatic damage
ALF mouse models [2]; [6]
  Serum ALT activity: attenuated
  Serum AST activity: attenuated

## CC(=O)N[C@@H](CS)C(=O)O [N-acetylcysteine]
APAP-induced ALF
  adverse effects including anaphylactic reaction: ≤ 15 % of the cases
  effectiveness of the intervention: only very partially effective

## CN1C(=O)C(Cc2c[nH]c3ccccc23)NC1=S (centres unmarked) [RIP1 inhibitor, Nec1]
ALF mouse models [2]
  ALT activity in serum: significantly reduced
  AST activity in serum: significantly reduced

## COc1cc(O)c2c(c1)/C=C/C[C@H](O)[C@H](O)C(=O)/C=C\C[C@H](C)OC2=O [TAK1 inhibitor, 5Z-7-Oxozeaenol]
Ly6C-positive monocytes
  monocyte infiltration: significant reduction
ALF mouse models [1]
  liver damage, histopathological analysis: significantly reduced liver damage
ALF mouse models [2]
  AST activity in serum: significantly reduced

## C[S+]([O-])c1ccc(-c2nc(-c3ccncc3)c(-c3ccc(F)cc3)[nH]2)cc1 (centres unmarked) [p38 inhibitor, SB203580]
Ly6C-positive monocytes
  monocyte infiltration: significant reduction
ALF mouse models [1]
  liver damage, histopathological analysis: significantly reduced liver damage
ALF mouse models [2]
  ALT activity in serum: significantly reduced
  AST activity in serum: significantly reduced

— patent publication US20220362329A1, “TREATING ACUTE LIVER DISEASE WITH TLR-MIK INIHIBITORS” (Yeda Research and Development Co. Ltd., priority 2020, published 2022)
